Read-outs that look alike come from different tables or passages of the source.
Tests used:
[1] = tested on: U-2932 cells; test: Real Time Glo viability screen and validation, Betalutin with PARP or cell cycle kinase inhibitors (Examples 4, 7); type: cell-based, human
Experimental: (§1) DLBCL cell lines U2932 and RIVA were maintained in RPMI 1640-GlutaMAX medium (Gibco) supplemented with 15% fetal bovine serum (Biowest) and 1% penicillin-streptomycin (Gibco) at 37° C. in a humidified atmosphere containing 5% CO2. Cells were split twice a week 1:7 and diluted 2-4 days before start of the experiment, to ensure they are in exponential growth at the beginning of the experiment.
(§2) Cells were treated in 6-well plates without shaking for 18 h with Betalutin at a final concentration of 1 μg/ml for U2932 and 0.5 μg/ml for RIVA. After treatment, PBS was added to the cells, and the cells pelleted. Cells were first resuspended in 1 ml PBS, then washed twice in PBS and finally diluted in growth medium to a final concentration of 2.5*10^6 cells/ml.
(§3) Cells density measurements were performed the day before seeding. Based on these measurements cells were seeded in 384-well plates at a density of 3000 cells per well in a culturing volume of 25 μl (resulting in start titers: 120 000 cells/ml) using a robot. For measuring viability using Real Time Glo (Promega, WI, USA), the Cell Viability Substrate and NanoLuc® Enzyme were diluted 1:500 in growth medium, and 25 μL of diluted reagents dispensed in each well by a robot. All reagents were equilibrated to 37° C. Cells were incubated with the reaction mix for 1 h at 37° C. before the first measurement of luminescence. Measurements were repeated as often as required within 72 h after adding the reagents. A Tecan SPARK 10M plate reader (Tecan, SUI) was used to measure luminescence, with the integration time set to 1 sec.
(§4) The screen was performed in 384-well plate with selected PARP inhibitors (stock solutions 10 mM in DMSO) acquired from SelleckChem (Selleckchem, TX, USA). To include no-drug controls, the drug panel (Table 6) was divided on two plates. Due to previous observations of cells growing poorly in wells located at the edges of the plates, the two outer most rows and columns were not used. As previously mentioned three different drug concentrations were used in the screen, 10 nM and 1 μM for U2932 and 10 and 100 nM for RIVA.
(§5) Candidate hits were identified using the Bliss Independence test for synergy. The effect of each drug alone at each concentration was calculated as the fraction of dead cells as compared to control cells Fa=(1−(RLUdrug/avgRLUcontrol), a similar calculation was performed for the effect of Betalutin alone Fb=(1−(avgRLUBetalutin/avgRLUcontrol). Through the following equation we found the expected additive effect of the combination of drug+Betalutin: Expected effect (E)Fab=(Fa+Fb−Fa*Fb). We subtracted this expected effect from the measured effect (M)Fab=(1−(RLUDrug+Betalutin/avgRLUcontrol) to get a value (Diff)Fab representing how the measured effect differed from the expected additive effect of the combination. This value was normalized to the survival fraction of drug alone: (Diff)Fab#=(Diff)Fab/(1−Fa). Furthermore, to get a measure of how big the well-to-well variation was, we calculated the standard deviation for the effect of Betalutin alone in the 48 control wells on each plate: (STDEV)Fb=(RLUBetalutin/RLUcontrol)−(averageRLUBetalutin/averageRLUcontrol). Drugs with a value (Diff)Fab#two times higher than the standard deviation of Betalutin treated controls, (STDEV)Fb, were scored as hits.
as §3, with “Measurements were repeated as often as required within 72 h after adding the reagents. A Tecan SPARK 10M plate reader (Tecan, SUI) was used to measure luminescence, with the integration time set to 1 sec.” left out

[2] = tested on: RIVA cells; test: Real Time Glo viability assay, Betalutin and cell cycle inhibitors (Example 2); type: cell-based, human; conditions: RIVA; for viability at 0.1 µM / viability at 1 µM: Homo sapiens, read-out: Growth inhibition (signal treated/control; 1 = no change)
Experimental: Cells were split twice a week 1:3-1:5 depending on cell density. […] Real Time Glo was purchased from Promega. 384 well plates were purchased from Greiner Bio-One.
Cells were treated for 18-20 h with Betalutin at a final concentration of 1 μg/ml and 2 μg/ml in 6-well cell culture plates with shaking. After treatment, PBS was added to the cells, and the cells pelleted. Cells were first resuspended in 1 ml PBS, then washed twice in PBS and finally diluted in growth medium at the desired concentration. All cell lines were treated at a cell concentration of 2.5*10^6 cells/ml.
Regardless of cell number the culturing volume was 25 μl. For Real Time Glo, the Cell Viability Substrate and NanoLuc® Enzyme were diluted 1:500 in growth medium, and 25 μL of diluted reagents added to each well. All reagents were equilibrated to 37° C. Cells were incubated with the reaction mix for 1 h at 37° C. before the first measurement of luminescence. Measurements were repeated as often as required within 72 h after adding the reagents. Digitonin was added to cells at 200 μg/ml to record background luminescence of dead cells. A Tecan SPARK 10M plate reader was used to measure luminescence, with an integration time set to 1 sec.
Growth inhibition was calculated by dividing the luminescence signal of the treated cells by the luminescence signal of the control cells for each day of measurement after start of treatment [Table 1].
To evaluate effects of the drugs alone [(−)Betalutin] and their combination with Betalutin [(+)Betalutin], we calculated the Z-score for each sample (ZdrugX=1-(+)BetalutindrugX/(−)BetalutindrugX), where (+)BetalutindrugX and (−) BetalutindrugX are the measured luminescence intensity values for drug X in presence and absence of Betalutin, respectively. The calculation of Z-score values separately for each plate enabled comparison of results across plates, despite variations between the plates in overall signal intensity.

[3] = tested on: RIVA cells; test: Real Time Glo viability screen, Betalutin with PARP or cell cycle kinase inhibitors (Examples 4, 7); type: cell-based, human; conditions: RIVA
Experimental: as §1, §2, §3, §4, §5
as §3, with “Measurements were repeated as often as required within 72 h after adding the reagents. A Tecan SPARK 10M plate reader (Tecan, SUI) was used to measure luminescence, with the integration time set to 1 sec.” left out

[4] = tested on: OCI-Ly8 tumor xenografts; test: Treatment of mice with tumor xenografts

Nc1nc(Nc2ccc(S(N)(=O)=O)cc2)nn1C(=O)c1c(F)cccc1F [JNJ-7706621] was tested, and the inhibition at 1 µM ([1]; Homo sapiens, U2932, 120 h, U-2932, drug 1 μM, five days into treatment, read-out: Growth inhibition, drug alone) was about 40%, the inhibition at 0.64 µM ([1]; Homo sapiens, U2932, U-2932, drug 640 nM, read-out: Growth inhibition, drug with Betalutin pre-treatment) was about 80% and the “Growth inhibitory effect, drug alone” value ([1]; U-2932, drug 10 nM) was “no growth inhibitory effect”. For the same molecule, the “Combined growth inhibition with Betalutin pre-treatment” value ([1]; U-2932, drug 1 μM + Betalutin) was “more than 60%”, the “Synergy by combination index” value ([1]; U-2932, drug 80-1280 nM with 0.5, 1 or 2 μg/ml Betalutin, day 5) was “Synergy was found for all tested combinations” and the “Synergy by combination index, confirmation experiments” value ([1]; U-2932, drug 100-5000 nM with Betalutin 0.5-5 μg/ml, day 5) was “observed for all but two combinations”. The “Growth impairment, drug alone” value ([1]; U-2932, highest tested dose 1280 nM) was 30%, the “BLISS analysis, combination with Betalutin versus expected additive effect” value ([1]; U-2932, significant = more than twice the SD of Betalutin alone) was “significantly greater than the expected additive effect” and the viability at 0.1 µM ([2]; drug 100 nM, +Betalutin, Dy3) was 13%. For the same molecule, the viability at 0.1 µM ([2]; drug 100 nM, +Betalutin, Dy4) was 8%, the viability at 0.1 µM ([2]; drug 100 nM, +Betalutin, Dy5) was 4% and the viability at 0.1 µM ([2]; drug 100 nM, +Betalutin, Dy6) was 4%. It also gave a viability at 0.1 µM ([2]; drug 100 nM, −Betalutin, Dy3) of 89%, a viability at 0.1 µM ([2]; drug 100 nM, −Betalutin, Dy4) of 82% and a viability at 0.1 µM ([2]; drug 100 nM, −Betalutin, Dy5) of 99%. It also gave a viability at 0.1 µM ([2]; drug 100 nM, −Betalutin, Dy6) of 89%, a viability at 1 µM ([2]; drug 1 μM, +Betalutin, Dy3) of 29% and a viability at 1 µM ([2]; drug 1 μM, +Betalutin, Dy4) of 13%. It also gave a viability at 1 µM ([2]; drug 1 μM, +Betalutin, Dy5) of 4%, a viability at 1 µM ([2]; drug 1 μM, +Betalutin, Dy6) of 3% and a viability at 1 µM ([2]; drug 1 μM, −Betalutin, Dy3) of 50%. The viability at 1 µM ([2]; drug 1 μM, −Betalutin, Dy4) was 31%, the viability at 1 µM ([2]; drug 1 μM, −Betalutin, Dy5) was 17% and the viability at 1 µM ([2]; drug 1 μM, −Betalutin, Dy6) was 14%. The “Synergy for the combination with Betalutin” value ([2]; drug 100 nM) was “Bliss + Z-score”, the “Synergy for the combination with Betalutin” value ([2]; drug 1 μM) was “Z-score” and the “Growth inhibitory effect, drug alone” value ([3]; drug 100 nM) was “no growth inhibitory effect”.

For C=CCn1c(=O)c2cnc(Nc3ccc(N4CCN(C)CC4)cc3)nc2n1-c1cccc(C(C)(C)O)n1 [MK-1775], the “Tumor growth delay versus ^177Lu-lilotomab alone” value ([4]; 250 MBq/kg ^177Lu-lilotomab + MK-1775, p=0.05) was “significantly better”, the “Efficacy of combination versus 500 MBq/kg ^177Lu-lilotomab alone” value ([4]; 250 MBq/kg ^177Lu-lilotomab + MK-1775, p=0.7070) was “as efficient as 500 MBq/kg” and the “Therapeutic efficacy compared with control” value ([4]; single agent) was “no therapeutic efficacy”. It also gave a viability at 0.1 µM ([2]; drug 100 nM, +Betalutin, Dy3) of 49%, a viability at 0.1 µM ([2]; drug 100 nM, +Betalutin, Dy4) of 38% and a viability at 0.1 µM ([2]; drug 100 nM, +Betalutin, Dy5) of 24%. For the same molecule, the viability at 0.1 µM ([2]; drug 100 nM, +Betalutin, Dy6) was 23%, the viability at 0.1 µM ([2]; drug 100 nM, −Betalutin, Dy3) was 100% and the viability at 0.1 µM ([2]; drug 100 nM, −Betalutin, Dy4) was 89%. It also gave a viability at 0.1 µM ([2]; drug 100 nM, −Betalutin, Dy5) of 94%, a viability at 0.1 µM ([2]; drug 100 nM, −Betalutin, Dy6) of 94% and a viability at 1 µM ([2]; drug 1 μM, +Betalutin, Dy3) of 2%. The viability at 1 µM ([2]; drug 1 μM, +Betalutin, Dy4) was 1%, the viability at 1 µM ([2]; drug 1 μM, +Betalutin, Dy5) was 1% and the viability at 1 µM ([2]; drug 1 μM, +Betalutin, Dy6) was 1%. For the same molecule, the viability at 1 µM ([2]; drug 1 μM, −Betalutin, Dy3) was 8%, the viability at 1 µM ([2]; drug 1 μM, −Betalutin, Dy4) was 4% and the viability at 1 µM ([2]; drug 1 μM, −Betalutin, Dy5) was 2%. For the same molecule, the viability at 1 µM ([2]; drug 1 μM, −Betalutin, Dy6) was 1%.

B1: Lutetium-177 [^177Lu]-lilotomab satetraxetan (conjugate, chains of the INN, looked up)
VH: EIQLQQSGPELVKPGASVKVSCKASGYSFTDYNMYWVKQSHGKSLEWIGYIDPYNGDTTYNQKFKGKATLTVDKSSSTAFIHLNSLTSEDSAVYYCARSPYGHYAMDYWGQGTSVTVSS
VL: DIVMTQSHKLLSTSVGDRVSITCKASQDVSTAVDWYQQKPGQSPKLLINWASTRHTGVPDRFTGSGSGTDYTLTISSMQAEDLALYYCRQHYSTPFTFGSGTKLEIK
modifications: 177Lu satetraxetan chelator conjugate
With B1 the Median survival ([4]; 250 MBq/kg, p=0.0062) was “significantly improved”, the Tumor growth delay ([4]; 250 MBq/kg, p=0.015) was “significantly improved” and the “Proliferation relative to non-treated cells” value ([1]; U-2932, 1 μg/ml [600 MBq/mg]) was “more than 80%”. The “Inhibition of proliferation capacity, single treatment” value ([1]; U-2932, Betalutin 1 μg/ml, days 5 and 6) was “less than 10%”, the “Proliferation potential compared to untreated cells” value ([1]; U-2932, validation screen, highest Betalutin dose (2 μg/ml)) was “about 70%” and the “Proliferation relative to non-treated cells” value ([3]; 0.5 μg/ml [600 MBq/mg], days 4-6) was “more than 40%”. The “Inhibition of proliferation capacity, single treatment” value ([3]; Betalutin 0.5 μg/ml, days 5 and 6) was “about 50%”.

Source: patent publication US20210106703A1, “RADIOIMMUNOCONJUGATES IN COMBINATION WITH OTHER DRUGS AS TREATMENT AGAINST NHL” (Nordic Nanovector ASA, priority 2017, published 2021)
